pEC50, pIC50: −log10 of the molar value. Read-outs that look alike come from different tables or passages of the source.
Tests used:
[1] = cited from earlier work; for FTPC: free therapeutic plasma concentration, Refs of Supplementary Table 1; for FPTC (free plasma therapeutic concentration): ref Supplementary Table 1
[2] = test system: R-PAT hiPSC-CMs; experiment: CO:R-PAT contractility, refined conditions (RPMI-B27, slowed beat rate); type: cell-based, human; details: analysis of different stages of relaxation; platform taken from context (CO:R-PAT)
Excerpt: The hiPSC-CMs used were R-PAT (derived and differentiated in house as described previously) ([Mosqueira et al., 2018]; [Smith et al., 2018]), and iCell^2 and Pluricyte (purchased from Cellular Dynamics International and Ncardia). Manufacturer instructions were followed for the commercial hiPSC lines. For iCell^2, seeding was at 25 000 cells into each well of 96-well plates (Nunclon Delta Surface; Thermo, 167008) and then maintained for 10 days before use in drug evaluation studies. The same plates were used for R-PAT hiPSC-CMs, which were seeded at 40 000 cells/well and maintained until days 20 and 21 of differentiation before use. For Pluricyte hiPSC-CMs, seeding was at 35 000 cells into each well of 96-well plates (Greiner Bio-One; 655087) and then maintained for 8 days before use. […]
hiPSC-CMs in 96-well plate were transiently loaded in 50 µl/well of SFM containing FluoVolt (1:200 part B, 1:2000 part A; Life Tech, F10488) for 20 min at 37°C and 5% CO2. […] Electrophysiology data were analyzed using CellOPTIQ proprietary software of Clyde Biosciences and were normalized to a maximum amplitude of 1 and minimum of 0 to standardize height for comparison of traces created in OriginPro (OriginLab version 7.5). Contractility data were analyzed based on pixel displacement using an ImageJ plug-in. […]

[3] = test system: cardiac contractility; details: cited from earlier work; for pEC50: read-out: Expected effect on contractility in isolated cardiomyocytes/heart muscles, EC50; for NIE: ref (Perez et al. 1995), (Boldt et al. 2010), (Bois et al. 1996), (Mesirca et al. 2014), (Choi et al. 2016)
[4] = test system: hiPSC-CM EHTs; experiment: EHT contractility with beat rate slowed by 300 nM ivabradine and electrical pacing 0.5-2.0 Hz; type: cell-based, human; details: for CA response: EHTs with 300 nM ivabradine, paced, only at 0.5 and 0.7 Hz, sometimes at 1 Hz, never at 1.5 or 2 Hz, high concentration bolus
Procedure: We extended these studies to the 3D EHT platform, this time slowing spontaneous beating to < 0.5 Hz with 300 nM ivabradine, a pharmacological blocker of the “funny” If current ([Bois et al., 1996]). […] Whereas force-frequency relationships was negative above 1.5 Hz, it was positive between 0.5 and 1.5 Hz, evidenced by a 147% increase in force generation concurrent with significant shortening of CT and RT (Supplementary Figure 6). We therefore re-evaluated 6 of the PIs in the presence of 300 nM ivabradine with electrical pacing at 0.5, 0.7, 1.0, 1.5, and 2.0 Hz. These also included epinephrine, levosimendan, and pimobendan, which had been incorrectly predicted by EHT:R-PAT and/or EHT:ERC platform-cell combinations. […] Thus, in both 2D and 3D configurations, lower beating frequencies led to increased predictivity for PIs.
Figure 5. Slowed beat rate increases the predictivity of positive inotropes (PIs) in 3D engineered heart tissues (EHTs). Contraction analysis was carried out using EHTs with 6 of the PIs from the drug test set: epinephrine (Epi), forskolin (For), levosimendan (Lev), pimobendan (Pim), dobutamine (Dob), and milrinone (Mil) which had been predicted with variable accuracy (Figure 4A, web tool). […] Scatter plots show percentage changes relative to baseline at respective frequency. Averaged peaks for force are shown for baseline (BL, black peaks) versus after treatment in EHTs paced at 0.5 Hz (blue peaks) or 2.0 Hz (red peaks). Dunnett’s stats versus baseline at respective frequency: *p < .05; **p < .01; ***p < .001; ****p < .0001.
Supplementary Figure 6. Positive force frequency relationship in EHTs paced between 0.5 and 1.5 Hz. Spontaneous beat rate of EHTs was reduced by 3 hour pre-treatment with 300 nM ivabradine, an If current inhibitor. […] CA increased from 0.5 to 1.5 Hz but plateaued and declined at higher frequencies. These changes were reflected in the CT and RT data. Dunnett's stats vs vehicle control: *, P<0.05; **, P<0.01; ***, P<0.001; ****, P<0.0001.

[5] = test system: PDE3; set-up: method as in Refs column of Supplementary Table 1; details: Refs of Supplementary Table 1; read-out: PDE3 inhibitor IC50; cited from earlier work
[6] = test system: heart; set-up: method as in Refs column of Supplementary Table 1; details: Refs of Supplementary Table 1; cited from earlier work
[7] = test system: adult rabbit ventricular cardiomyocytes; experiment: CellOPTIQ (CO) contractility, adult rabbit ventricular cardiomyocytes; type: cell-based; details: isolated rabbit myocytes; not reported in any hiPSC-CM platform
Procedure: Hearts were removed and perfused retrogradely at 25 ml⋅min^−1 (37°C) with a modified KH solution containing 0.75 mmol/l [Ca^2+] for 5 min, followed by a nominally Ca^2+-free KH solution with 0.1 mmol/l EGTA for 5 min. Hearts were then perfused with KH solution containing 0.24 mmol/l [Ca^2+], 1 mg/ml collagenase (type I), and 0.06 mg/ml protease (type XIV). After approximately 4–5 min, enzyme was removed and the left ventricular free wall was then cut into strips in the recirculated enzyme solution containing 1% bovine serum albumin before being mixed to yield a single cell suspension. Cells were maintained in either Ca^2+-free KH solution or 1 mmol/l Ca^2+ (via stepwise increments) until use. Intact cardiomyocytes in 1.8 mmol/l modified Ca^2+ KH solution were loaded with FluoVolt (Thermo Fisher Scientific) at 1:3000 dilution for 10 min. The incubation medium was removed and the cells resuspended in a modified KH solution.
Cardiomyocytes were allowed to settle on a coverslip in a bath (35 mm petri-dish) at 37°C. […] A parallel set of vehicle (DMSO) time control experiments were also performed FluoVolt fluorescence (490 nm excitation) was measured at a sampling rate of 10 KHz, whereas the image was recorded on a CCD camera at 100 Hz frame rate using > 700 nm light. […]

[8] = test system: hiPSC-CMs; set-up: method as in Zhao et al., 2019; details: hiPSC-CMs under loaded conditions; ref Zhao et al., 2019; cited from earlier work
[9] = isolated cardiomyocytes/heart muscles, Refs of Supplementary Table 1

Row | Structure (SMILES) | FTPC [1] [µM] | FPTC (free plasma therapeutic concentration) [1] [µM] | relaxation analysis at 50% relaxation [2] | pEC50 [3, 9] | CA response [4] | Expected effect on contractility in isolated cardiomyocytes/heart muscles [3, 9] | PCl+PL [3, 9] [%] | Small PI [3, 9] [%] | pIC50 [5] | Expected cardiac effects in vivo [6] | spontaneous diastolic SR Ca2+ release [7] | inotropy in Biowire II constructs [8] | relaxation analysis at 80% relaxation [2] | NIE ([3]; guinea pig PM, at 100 µM) [%] | NIE ([3]; guinea pig atria, at 100 µM) [%] | NIE ([3]; human trabeculae at 100 µM) [%] | spontaneous beating of EHTs ([4]; 300 nM ivabradine) [Hz]
1 | CC(CCc1ccc(O)cc1)NCCc1ccc(O)c(O)c1 (centres unmarked) [Dobutamine] | 0.07 to 1 | 0.07 to 1 | positive lusitropy | 5.52 to 6.00 | increased contraction amplitude | – | – | – | – | – | – | – | – | – | – | – | –
2 | C[C@@H]1CC(=O)NN=C1c1ccc(NN=C(C#N)C#N)cc1 [Levosimendan] | 0.026 to 0.35 | 0.026 to 0.35 | – | ~7.00 | increased contraction amplitude | Small PI (~50%), PC#, PCl+PL (14%) | 14 | ~50 | 7.60 | PI, PC (more heart rate increase and RR decrease than dobutamine) | – | – | – | – | – | – | –
3 | C=C[C@@]1(C)CC(=O)[C@]2(O)[C@@]3(C)[C@@H](O)CCC(C)(C)[C@@H]3[C@H](O)[C@H](OC(C)=O)[C@@]2(C)O1 [Forskolin] | 0.012 to 0.024 | 0.012 to 0.024 | – | 5.00 to 5.30 | increased contraction amplitude | – | – | – | – | PI, PC | spontaneous diastolic Ca^2+ release and associated diastolic shortening was observed | – | – | – | – | – | –
4 | Cc1[nH]c(=O)c(C#N)cc1-c1ccncc1 [Milrinone] | 0.1 to 0.15 | 0.1 to 0.15 | – | 4.22 | increased contraction amplitude | Small PI, PC#, PCl, PL (smaller than ISO) | – | – | – | PI, PC (more heart rate increase and RR decrease than dobutamine) | – | positive inotropy | – | – | – | – | –
5 | COc1cc2c(cc1OC)CC(=O)N(CCCN(C)C[C@H]1Cc3cc(OC)c(OC)cc31)CC2 [Ivabradine] | 0.01 to 0.1 | 0.01 to 0.1 | – | – | – | None, NC at >10 µM (spontaneously beating preps), NIE (-13/-60% in guinea pig atria/PM, -38% human trabeculae at 100 µM); PI in mouse left atria and 30% of human trabeculae | – | – | – | – | – | – | late relaxation deficit | -60 | -13 | -38 | < 0.5
